Results from publication PMC11898605, “Selective Azapeptide CD36 Ligand MPE-298 Regulates oxLDL-LOX-1-Mediated Inflammation and Mitochondrial Oxidative Stress in Macrophages” (Cells, 2025).

Assays:
[1] = biological target: T1, CD36 (Mus musculus, UniProt Q08857); experiment: BRET-based CD36 internalization assay; format: cell-based; details: 30 min pretreatment: PP1 3 μg/mL, cytochalasin D 2 μg/mL, piceatannol 40 μM, 2-bromopalmitate 100 μM, SSO 100 μM, BI-0115 5 μM; then ligand 15 min
T1 construct: CD36 ORF was amplified from pCMV3-mCD36-GFPSpark; expressed in transfected cells; host or cells: J774A.1 murine macrophages, transiently co-transfected with mCD36-RlucII and rGFP-CAAX
From the text: For the construction of mouse CD36-RlucII, CD36 ORF was amplified from pCMV3-mCD36-GFPSpark using the 5′-primer NheI-CD36-Forward: […] and 3′-primer HindIII-CD36-Reverse: […] primers to introduce NheI and HindIII digestion sites sequences. The final product was subcloned in-frame into NheI/HindIII of pcDNA3.1/hygromycin (+) plasmid containing the RlucII [19]. The rGFP-CAAX plasmid, constructed as previously described, was kindly provided by Dr. Stephane Laporte.
For the BRET assay, J774A.1 cells were seeded in a 96-well plate (white, flat bottom) at a density of 35,000 cells/well in DMEM supplemented with 10% FBS and 1% penicillin/streptomycin. Cells were grown at 37 °C in 5% CO2 and 90% humidity. The next day, the culture medium was changed to DMEM 10% FBS and 0.2% penicillin/streptomycin, supplemented with 5-azacytidine (1 μM) for 2 h. Cells were transiently transfected using a mixed solution containing mCD36-RlucII plasmid (25.6 ng), rGFP-CAAX plasmid (31.7 ng), and pcDNA3.1(+) for a total of 80 ng cDNA/well. TransIT-X2® reagent was used at a cDNA-to-reagent ratio of 1 μg to 4 μL. Twenty-four hours later, cells were starved for 2 h in Tyrode’s buffer (140 mM NaCl, 2.7 mM KCl, 1 mM CaCl2, 12 mM NaHCO3, 5.6 mM D-glucose, 0.5 mM MgCl2, 0.37 mM NaH2PO4, and 25 mM HEPES, pH 7.4) supplemented with 0.01% BSA. Luminescence was induced with Prolume Purple (1.5 μM final) for 2 min in Tyrode’s buffer. Luminescence signal was measured using a Tecan Spark Multimode microplate reader (Tecan Trading AG, Männedorf, Switzerlnd) in the BRET2 mode with filter sets of 420/70 nm and 515/30 nm for detecting RlucII and rGFP signals, respectively. The BRET ratio was determined as follows: [(intensity emitted by the rGFP/intensity emitted by the Rluc2) − (intensity emitted by the rGFP/intensity emitted by the Rluc2 for the CD36-RLuc2 control cells)].
For kinetic study, transiently co-transfected J774A.1 cells were incubated at different times with MPE-298 (100 nM) or oxLDL (25 μg/mL). In experimental protocols involving pharmacological inhibitors, cells transiently co-transfected were pretreated with PP1 (3 μg/mL), cytochalasin D (2 μg/mL), piceatannol (40 μM), 2-bromopalmitate (100 μM), SSO (100 μM), and BI-0115 (5 μM) for 30 min. CD36 internalization was then induced with MPE-298 and oxLDL for 15 min. For the BRET saturation studies, the cells were transiently transfected with a fixed concentration of mCD36-RlucII plasmid (25.6 ng) and increasing concentrations of rGFP-CAAX plasmid ranging from 0 to 77 ng for 24 h.

[2] = tested on: CCL2; experiment: CCL2 secretion, ELISA; format: cell-based, mouse; details: RAW264.7, SSO 100 μM, Figure 4G
Experimental: RAW264.7 cells were seeded at a density of 150,000/well in 48-well plates. The next day, the cells were weaned for 4 h in DMEM supplemented with 0.2% BSA, exposed to MPE-298 or oxLDL or the combination of MPE-298 and oxLDL, and incubated at 37 °C in 5% CO2 for 16 h. After the incubation period, media were collected and assessed for CCL2 chemokine using a mouse ELISA detection kit (Invitrogen-Life Technologies, Carlsbad, CA, USA) following the manufacturer’s instructions. For experiments using inhibitors, the cells were pre-exposed to SSO for 30 min prior to stimulation with MPE-298 or oxLDL.

[3] = tested on: RAW264.7 cells; experiment: mtROS production (MitoSOX Red) in RAW264.7 cells; format: cell-based, murine; details: for effect of inhibitor on oxLDL-elicited mtROS production: 30 min pre-exposure, oxLDL 25 μg/mL 4 h, Figures S4C, 5F; for effect of inhibitor on MPE-298's inhibition of oxLDL-elicited mtROS production: SSO 100 μM, PP1 3 μg/mL, cytochalasin D 2 μg/mL, 2-BP 100 μM, BI-0115 5 μM, Figure 5A,B,F
Experimental: RAW264.7 cells (17,000 cells/well) or M1 BMDM (60,000 cells/well) in complete medium (RPMI 1640 supplemented with 10% FBS and 1% penicillin/streptomycin), were seeded in 96-well tissue culture plates and incubated overnight at 37 °C in 5% CO2. On the day of experimentation, cells were starved in RPMI medium supplemented with 1% penicillin/streptomycin and 0.2% BSA for 1 h. Cells were first pretreated with MPE-298 for 1 h and stimulated or not with oxLDL for 4 h. In other experiments, cells were preincubated with inhibitors as indicated in the figure legends prior to MPE-298 incubation and oxLDL stimulation. After the stimulation period, cells were washed with Hanks’ balanced salt solution (HBSS, Wisent Inc.) and incubated with a mixture of MitoSOX Red (5 μM), a mitochondrial superoxide indicator, and Hoechst-33342 (4 μM), a nuclear staining dye, for 20 min at 37 °C. The fluorescence intensities were analyzed using a Synergy2 (BioTek) microplate reader with the following filter sets: excitation/emission at 510/580 nm for MitoSox and 350/461 nm for Hoechst-33342. Fluorescence intensity of MitoSox was normalized by fluorescence intensity of Hoescht-33342.

[4] = tested on: RAW264.7 cells; experiment: Mitochondrial membrane potential (JC-1) in RAW264.7 cells; format: cell-based, murine; details: for effect of inhibitor on oxLDL-elicited mitochondrial membrane depolarization: Figures S4D, 5G; for effect of inhibitor on MPE-298's reversal of oxLDL-elicited mitochondrial membrane depolarization: SSO 100 μM, PP1 3 μg/mL, 2-BP 100 μM, BI-0115 5 μM, Figure 5D,G
Experimental: For the measurement of the mitochondrial membrane potential (ΔΨM), treated cells were incubated in HBSS with 5,5′,6,6′-tetrachloro-1,1′,3,3′-tetraethylbenzimidazolylcarbocyanine iodide (JC-1, 5 μM), a membrane-permeable cationic dye (Invitrogen-Life Technologies, Carlsbad, CA, USA). After 20 min, cells were extensively washed with HBSS. Fluorescence from aggregated JC-1 was measured with an excitation wavelength of 550 nm and emission wavelength of 600 nm, and fluorescence from JC-1 monomer was detected with an excitation wavelength of 485 nm and emission wavelength of 535 nm. The ΔΨM was determined from the ratio of intensities at 600 nm and 535 nm.

[5] = tested on: JNK (Thr183/Tyr185); experiment: Western blot of JNK phosphorylation in RAW264.7 cells; format: cell-based, murine; details: preincubation before oxLDL, BI-0115 5 μM, SSO 100 μM, Figures 7A, S5
Experimental: (§1) Murine RAW264.7 cells or M1 BMDMs were seeded in 6-well plates. The next day, cells were starved for 4 h and treated with MPE-298 (100 nM) or oxLDL (25 μg/mL) for the indicated times. Cells were washed with cold PBS, then lysed for 30 min in ice-cold radioimmunoprecipitation assay buffer (RIPA) (150 mM NaCl, 50 mM Tris-HCl, 1% Triton X-100, 0.2% SDS, 50 mM NaF, and 2 mM EDTA, pH 7.4) containing protease and phosphatase inhibitors (Pierce Biotechnology, Waltham, MA, USA). Cell lysates were centrifuged at 15,000× g for 20 min at 4 °C.
(§2) The protein concentration of supernatants was determined by a bicinchoninic acid (BCA) assay (Pierce Biotechnology, Waltham, MA, USA). Equal amounts of protein extracts were separated on 4–12% SDS–polyacrylamide gels and transferred to polyvinylidene difluoride (PVDF) membranes (Bio-Rad Laboratories, Hercules, CA, USA) for immunoblotting. Membranes were blotted with primary antibodies p47phox and Rac1/2/3 for phosphorylated Syk (Tyr348), as well as SRC family kinases (Tyr416), Lyn (Tyr397), JNK (Thr183/Tyr185), and p66Shc (Ser36). […] Immunoblotted bands were detected by enhanced chemiluminescence with West Femto chemiluminescent substrate (Thermo Scientific, Waltham, MA, USA) using a ChemiDoc MP Imaging System (Bio-Rad Laboratories, Hercules, CA, USA). […]

[6] = tested on: p66Shc (Ser36); experiment: Western blot of p66Shc phosphorylation in RAW264.7 cells; format: cell-based, murine; details: preincubation before oxLDL, BI-0115 5 μM, SSO 100 μM, Figures 7A, S5
Experimental: as §1, §2

[7] = tested on: RAW264.7 cells; experiment: ATTO-465-MPE-298 internalization in RAW264.7 cells; format: cell-based, murine; details: 30 min pretreatment with PP1 3 μg/mL, PP2 3 μg/mL or cytochalasin D 2 μg/mL, ATTO-465-MPE-298 500 nM 15 min, acid wash, n = 3 in triplicate
Experimental: RAW 264.7 cells (ATCC) were seeded at 125,000 cells per well in a 96-well plate and allowed to adhere overnight in Roswell Park Memorial Institute Medium (RPMI, Wisent Inc, Saint-Jean-Baptiste, QC, Canada) supplemented with 10% FBS and 1% penicillin/streptomycin at 37 °C in 5% CO2. The cells were weaned off FBS for 2 h in RPMI-25mM Hepes, supplemented with 1% penicillin/streptomycin and 0.2% BSA. The kinetics of ligand internalization (incubation at 37 °C) and plasma membrane bound (incubation at 4 °C) were initiated by adding ATTO-465-MPE-298 at different time points. After incubation, the cells were washed 3 times with cold PBS to determine the total fluorescence and the cell surface bounds or with sodium acetate pH 4 buffer at 4 °C to assess the internalized fraction, followed by lysis in 0.5N NaOH/0.05% sodium dodecyl sulfate (SDS). For the characterization of the endocytosis pathways elicited by MPE-298, cells were pretreated with specific inhibitors 30 min before adding the fluorescent peptide as the tracer. Briefly, after being weaned off FBS, the cells were preincubated at 37 °C in 5% CO2 with cytochalasin D (2 μg/mL), as an inhibitor of actin polymerization, and with PP1 (3 μg/mL) and PP2 (3 μg/mL), as inhibitors of Src kinases. After 30 min of incubation, ATTO-465-MPE-298 was added for an additional 15 min. The fluorescence was analyzed with excitation/emission wavelengths at 510/580 nm using a BioTek Synergy2 (Agilent, Santa Clara, CA, USA)microplate reader.

Compound	effect of inhibitor pretreatment on MPE-298- and oxLDL-induced loss of BRET signal [1]	effect of preincubation on oxLDL-induced CCL2 secretion ([2]; 30 min preincubation)	effect of pre-exposure on MPE-298's effects on oxLDL-triggered CCL2 release [2]	effect of inhibitor on oxLDL-elicited mtROS production [3]	effect of inhibitor on MPE-298's inhibition of oxLDL-elicited mtROS production [3]	effect of inhibitor on oxLDL-elicited mitochondrial membrane depolarization [4]	effect of inhibitor on MPE-298's reversal of oxLDL-elicited mitochondrial membrane depolarization [4]	effect on oxLDL-induced JNK phosphorylation [5]	effect on oxLDL-induced p66Shc phosphorylation [6]	decrease of uptake of fluorescently labeled MPE-298 [7] [%]
CCCCCCCC/C=C\CCCCCCCC(=O)ON1C(=O)CC(S(=O)(=O)O)C1=O (centres unmarked) [SSO, sulfosuccinimidyl oleate]	completely abolished	unaltered	completely abolished	neither SSO nor PP1 and 2-BP altered	blocked the protective effect	prevented	did not block	did not prevent	did not prevent	–
CC(C)(C)n1nc(-c2ccc(Cl)cc2)c2c(N)ncnc21 [PP2]	–	–	–	–	–	–	–	–	–	41
CCCCCCCCCCCCCCC(Br)C(=O)O (centres unmarked) [2-BP, 2-bromohexadecanoic acid]	abolish	–	–	neither SSO nor PP1 and 2-BP altered	blocked	prevented	did not block	–	–	–
C=C1[C@@H](C)[C@H]2[C@H](Cc3ccccc3)NC(=O)[C@]23[C@H](OC(C)=O)/C=C/[C@@](C)(O)C(=O)[C@@H](C)C/C=C/[C@H]3[C@@H]1O [cytochalasin D]	completely abolished	–	–	–	blocked the protective effect	prevented	–	–	–	53
Cc1ccc(-c2nn(C(C)(C)C)c3ncnc(N)c23)cc1 [PP1]	completely abolished	–	–	neither SSO nor PP1 and 2-BP altered	blocked the protective effect	prevented	did not block	–	–	45
Oc1cc(O)cc(/C=C/c2ccc(O)c(O)c2)c1 [piceatannol]	completely abolished	–	–	–	–	–	–	–	–	–
